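The compound was tested at five concentrations on cells cultured in 96-well plates, with a 48-hour exposure period. GI50 marks 50% less growth.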 The source made the active and inactive calls. Cut-off read from the data, not from the text of the source: active = GI50 up to about 1.1 µM and inactive = higher.
Assays:
Test in all cases: NCI tumour cell line growth inhibition, 48 h
SF-268 = tested on: SF-268
786-0 = tested on: 786-0
OVCAR-4 = tested on: OVCAR-4
RXF 393 = tested on: RXF 393
M14 = tested on: M14
U-251 = tested on: U-251
CCRF-CEM = tested on: CCRF-CEM
ACHN = tested on: ACHN
SK-MEL-28 = tested on: SK-MEL-28
SW-620 = tested on: SW-620
EKVX = tested on: EKVX
A549 = tested on: A549
MDA-MB-435 = tested on: MDA-MB-435
SK-MEL-2 = tested on: SK-MEL-2
PC-3 = tested on: PC-3
DU-145 = tested on: DU-145
SK-OV-3 = tested on: SK-OV-3
BT-549 = tested on: BT-549

SMILES	GI50 (SF-268)	GI50 (786-0)	GI50 (OVCAR-4)	GI50 (RXF 393)	GI50 (M14)	GI50 (U-251)	GI50 (CCRF-CEM)	GI50 (ACHN)	GI50 (SK-MEL-28)	GI50 (SW-620)	GI50 (EKVX)	GI50 (A549)	GI50 (MDA-MB-435)	GI50 (SK-MEL-2)	GI50 (PC-3)	GI50 (DU-145)	GI50 (SK-OV-3)	GI50 (BT-549)
CSS(C)(=O)=O	31.5 µM (inactive)	39.6 µM (inactive)	27.4 µM (inactive)	26.5 µM (inactive)	26.6 µM (inactive)	37.1 µM (inactive)	< 0.01 µM (active)	26.2 µM (inactive)	21.6 µM (inactive)	46.7 µM (inactive)	27.9 µM (inactive)	44.7 µM (inactive)	20.2 µM (inactive)	27.3 µM (inactive)	18 µM (inactive)	21.5 µM (inactive)		
CC(=NNC(=S)Nc1ccccc1C)c1cccc(C(C)=NNC(=S)Nc2ccccc2C)n1	5.81 µM (inactive)	4.13 µM (inactive)	0.321 µM (active)	13.4 µM (inactive)	15.8 µM (inactive)	34.4 µM (inactive)	3.59 µM (inactive)	4.15 µM (inactive)	13 µM (inactive)	57.5 µM (inactive)	76 µM (inactive)	24.2 µM (inactive)	60.4 µM (inactive)	74.3 µM (inactive)	32.1 µM (inactive)	23.1 µM (inactive)	> 100 µM (inactive)	
Cc1cc(C)n(-c2nc3ccccc3c(=O)n2-c2ccccc2)n1	> 100 µM (inactive)	> 100 µM (inactive)	> 100 µM (inactive)	> 100 µM (inactive)	> 100 µM (inactive)	> 100 µM (inactive)	> 100 µM (inactive)	> 100 µM (inactive)	> 100 µM (inactive)	> 100 µM (inactive)		> 100 µM (inactive)	> 100 µM (inactive)	67 µM (inactive)	> 100 µM (inactive)	> 100 µM (inactive)	> 100 µM (inactive)	
COc1ccc2nc3c([N+](=O)[O-])ccc(NCCN(C)C)c3c(N)c2c1	1.34 µM (inactive)	1.18 µM (inactive)	1.24 µM (inactive)	1.57 µM (inactive)	1.49 µM (inactive)	1.66 µM (inactive)	0.17 µM (active)	1.09 µM (active)	2.14 µM (inactive)	0.181 µM (active)	1.71 µM (inactive)	1.55 µM (inactive)		2.37 µM (inactive)	1.46 µM (inactive)	1.75 µM (inactive)	1.61 µM (inactive)	
C/C(=N/NC(=S)Nc1ccc([N+](=O)[O-])cc1)c1cccc(/C(C)=N\NC(=S)Nc2ccc([N+](=O)[O-])cc2)n1		0.264 µM (active)	0.959 µM (active)	0.53 µM (active)	0.321 µM (active)	0.547 µM (active)	0.318 µM (active)	0.126 µM (active)	> 100 µM (inactive)	0.364 µM (active)	0.658 µM (active)	0.594 µM (active)	0.931 µM (active)	3.99 µM (inactive)	0.6 µM (active)		2.13 µM (inactive)	0.463 µM (active)
CC(=O)/C(=C/NC(=S)Nc1ccc(Cl)c(Cl)c1)C(=O)Nc1ccccc1C	34.5 µM (inactive)	35 µM (inactive)	18.6 µM (inactive)	29.4 µM (inactive)	37 µM (inactive)	33 µM (inactive)		32.6 µM (inactive)	44.7 µM (inactive)	44.1 µM (inactive)	21.5 µM (inactive)	34.1 µM (inactive)	28.3 µM (inactive)	28 µM (inactive)		26.4 µM (inactive)	30.9 µM (inactive)	25.5 µM (inactive)
O=S(=O)(O)c1cc(/N=N/c2c(O)ccc3ccccc23)cc2c(S(=O)(=O)O)cccc12	> 100 µM (inactive)	> 100 µM (inactive)	> 100 µM (inactive)	> 100 µM (inactive)	> 100 µM (inactive)	> 100 µM (inactive)	> 100 µM (inactive)	> 100 µM (inactive)	> 100 µM (inactive)	> 100 µM (inactive)	> 100 µM (inactive)	> 100 µM (inactive)	> 100 µM (inactive)	> 100 µM (inactive)	> 100 µM (inactive)		> 100 µM (inactive)	> 100 µM (inactive)
O=S(=O)(N/N=C1\CC2CCC1C2)c1ccccc1 (centres undefined)	> 100 µM (inactive)	> 100 µM (inactive)	> 100 µM (inactive)		> 100 µM (inactive)	> 100 µM (inactive)	> 100 µM (inactive)	> 100 µM (inactive)	> 100 µM (inactive)	> 100 µM (inactive)	> 100 µM (inactive)	> 100 µM (inactive)	> 100 µM (inactive)	> 100 µM (inactive)	> 100 µM (inactive)	> 100 µM (inactive)	> 100 µM (inactive)	> 100 µM (inactive)
COc1ccc(C2=C(OC(C)=O)c3cccn3-c3ccccc3S2)cc1	> 10 µM (inactive)	2.46 µM (inactive)	4.69 µM (inactive)	1.61 µM (inactive)	5.68 µM (inactive)		2.9 µM (inactive)		3.66 µM (inactive)	2.55 µM (inactive)		7.53 µM (inactive)	0.265 µM (active)		2.3 µM (inactive)	2.46 µM (inactive)	2.65 µM (inactive)	

From ChEMBL document CHEMBL1201862, “PubChem BioAssay data set” (2004)
